Results: ChEMBL document CHEMBL1124628, “Topically active carbonic anhydrase inhibitors. 1. O-acyl derivatives of 6-hydroxybenzothiazole-2-sulfonamide” (J Med Chem, 1989)

Legend:
[1] = target: T1, Carbonic anhydrase 2 (Homo sapiens, UniProt P00918); experiment: In vitro inhibitory activity against human Carbonic anhydrase II; settings: read-out: I50
[2] = target: T1, Carbonic anhydrase 2
Description: In vitro inhibition of human Carbonic Anhydrase II

[3] = species: Oryctolagus cuniculus; experiment: Change in intraocular pressure in Albino rabbit when 5% of compound suspension bilaterally instilled in 3 doses of 20, 15 and 15 microL at 5 minute intervals determined by recovery rate assay; assay type: functional, Eye
[4] = species: Oryctolagus cuniculus; experiment: Change in intraocular pressure in Albino rabbit when 10% of compound suspension bilaterally instilled in 3 doses of 20, 15 and 15 microL at 5 minute intervals determined by recovery rate assay; assay type: functional, Eye
[5] = species: Oryctolagus cuniculus; experiment: Change in intraocular pressure in Albino rabbit when 2% suspension of compound bilaterally instilled in a single dose of 50 microL determined by recovery rate assay; assay type: functional, Eye
[6] = tested on: Oryctolagus cuniculus; experiment: Maximum decrease in intraocular pressure in Albino rabbit during 5 hours observation period after topical instillation of 1% suspension in alpha-Chymotrypsin assay; assay type: functional, Eye
[7] = Cleavage by corneal esterase at 37 degree C and at pH 7.4; assay type: ADME, tissue-based, Cornea
[8] = species: Oryctolagus cuniculus; experiment: Corneal penetration rate constant (k) for excised intact cornea of albino rabbit; assay type: functional
[9] = species: Oryctolagus cuniculus; experiment: Corneal penetration rate constant (k) for excised denuded cornea of albino rabbit; assay type: functional
[10] = species: Oryctolagus cuniculus; experiment: Change in intraocular pressure in Albino rabbit when 1% suspension of compound bilaterally instilled in a single dose of 50 microL determined by recovery rate assay; assay type: functional, Eye
[11] = In vitro susceptibility to nucleophilic attack by reduced glutathione at 37 degree C and at pH 7.4; assay type: ADME
[12] = tested on: Oryctolagus cuniculus; experiment: Maximum decrease in intraocular pressure in Albino rabbit during 5 hours observation period after topical instillation of 1% suspension; assay type: functional, Eye
[13] = species: Oryctolagus cuniculus; experiment: Change in intraocular pressure in Albino rabbit when 2% of compound suspension instilled in a single dose of 50 microL determined by recovery rate assay
[14] = tested on: Oryctolagus cuniculus; experiment: Maximum decrease in intraocular pressure in Albino rabbit during 5 hours observation period after topical instillation of 0.5% suspension; assay type: functional, Eye
[15] = species: Oryctolagus cuniculus; experiment: % change in intraocular pressure in Albino rabbit when 10% suspension bilaterally instilled in 3 divided doses of 20, 15 and 15 microL at 5 minute intervals determined by recovery rate assay; assay type: functional
[16] = tested on: Oryctolagus cuniculus; experiment: Maximum decrease in intraocular pressure in Albino rabbit during 5 hours observation period after topical instillation of 5% suspension; assay type: functional, Eye
[17] = tested on: Oryctolagus cuniculus; experiment: Maximum decrease in intraocular pressure in Albino rabbit during 5 hours observation period after topical instillation of 0.5% suspension in alpha-Chymotrypsin assay; assay type: functional, Eye
[18] = tested on: Oryctolagus cuniculus; experiment: Maximum decrease in intraocular pressure in Albino rabbit during 5 hours observation period after topical instillation of 5% suspension in alpha-Chymotrypsin assay; assay type: functional, Eye

NS(=O)(=O)c1nc2ccc(OC(=O)/C=C/c3ccccc3)cc2s1
IC50 [1]: 15 nM

CN(C)C(=O)Oc1ccc2nc(S(N)(=O)=O)sc2c1
IC50 [2]: 1.6 nM
Change [3]: 2%
Change [4]: -32%

CCOCCOCCOC(C)(C)C(=O)Oc1ccc2nc(S(N)(=O)=O)sc2c1
IC50 [2]: 3.2 nM
Change [5]: -21%
Change [4]: -22%
Pressure [6]: -9 mmHg

NS(=O)(=O)c1nc2ccc(OC(=O)CC3CCCC3)cc2s1
IC50 [1]: 6 nM

CC(=O)Oc1ccc2nc(S(N)(=O)=O)sc2c1
IC50 [2]: 2 nM
Change [3]: -42%
half-life [7]: 22 min
K [8]: 0.0165 h⁻¹
K [9]: 0.0217 h⁻¹
Change [5]: -35%
Change [4]: -47%
Pressure [6]: -8.8 mmHg
Change [10]: -10%

CC(=O)/N=c1/sc(S(N)(=O)=O)nn1C [METHAZOLAMIDE]
Reaction [11]: 27%
K [8]: 0.0041 h⁻¹

CC(C)COC(=O)Oc1ccc2nc(S(N)(=O)=O)sc2c1
IC50 [2]: 2.2 nM
Change [3]: -54%
half-life [7]: 7 min
Reaction [11]: 50%
K [8]: 0.0812 h⁻¹
K [9]: 0.0212 h⁻¹
Change [4]: -46%
Pressure [12]: -6.7 mmHg
Change [13]: -22%
Pressure [14]: -5.7 mmHg

CCCCCCCC(=O)Oc1ccc2nc(S(N)(=O)=O)sc2c1
Change [3]: -29%
Change [5]: -16%
Change [4]: -33%
Pressure [6]: -5 mmHg
IC50 [1]: 1.6 nM

CCOC(=O)Oc1ccc2nc(S(N)(=O)=O)sc2c1
IC50 [2]: 6.8 nM
half-life [7]: 19 min
K [8]: 0.0402 h⁻¹
K [9]: 0.0145 h⁻¹
Change [15]: -29%
Pressure [16]: -5.5 mmHg

CCCCCCCCCCCC(=O)Oc1ccc2nc(S(N)(=O)=O)sc2c1
Change [4]: -25%
IC50 [1]: 3.1 nM

NS(=O)(=O)c1nc2ccc(OC(=O)Cc3ccc(Cl)cc3)cc2s1
IC50 [1]: 10 nM

NS(=O)(=O)c1nc2ccc(OC(=O)c3ccccc3)cc2s1
Change [3]: 11%
half-life [7]: 30 min
Reaction [11]: 50%
K [8]: 0.035 h⁻¹
K [9]: 0.0152 h⁻¹
Change [4]: -25%
IC50 [1]: 8 nM

COCC(=O)Oc1ccc2nc(S(N)(=O)=O)sc2c1
IC50 [2]: 3.5 nM

NS(=O)(=O)c1nc2ccc(O)cc2s1
Reaction [11]: 27%

CCOP(=O)(OCC)Oc1ccc2nc(S(N)(=O)=O)sc2c1
IC50 [2]: 1.8 nM
Change [4]: -22%

CC(C)(C)C(=O)Oc1ccc2nc(S(N)(=O)=O)sc2c1N
IC50 [1]: 25 nM

NS(=O)(=O)c1nc2ccc(OC(=O)Cc3ccccc3)cc2s1
Change [3]: 4%
Change [5]: 13%
Pressure [17]: -2.5 mmHg
Change [4]: -48%
Pressure [6]: -6.8 mmHg
IC50 [1]: 30 nM

COC(C)(C)C(=O)Oc1ccc2nc(S(N)(=O)=O)sc2c1
IC50 [2]: 1.2 nM
half-life [7]: 36 min
K [8]: 0.0222 h⁻¹
K [9]: 0.019 h⁻¹

NS(=O)(=O)c1nc2cc(O)ccc2s1
IC50 [2]: 5 nM

CC(C)C(=O)Oc1ccc2nc(S(N)(=O)=O)sc2c1
IC50 [2]: 6.8 nM
Change [3]: -33%
Pressure [18]: -6.2 mmHg
half-life [7]: 9 min
Reaction [11]: 50%
K [8]: 0.045 h⁻¹
K [9]: 0.0162 h⁻¹
Change [5]: -48%
Pressure [17]: -9.3 mmHg
Change [4]: -30%
Pressure [6]: -6.8 mmHg
Change [10]: -38%

CCN(CC)CC1CCC(C(=O)Oc2ccc3nc(S(N)(=O)=O)sc3c2)CC1 (configuration not stated)
IC50 [2]: 2.8 nM

CN(C)Cc1ccc(C(=O)Oc2ccc3nc(S(N)(=O)=O)sc3c2)cc1
IC50 [1]: 4 nM

CCCC(=O)Oc1ccc2sc(S(N)(=O)=O)nc2c1
IC50 [2]: 4 nM
Change [4]: -54%

CC(C)(C)C(=O)Oc1ccc2nc(S(N)(=O)=O)sc2c1
Change [3]: -41%
Pressure [18]: -9.2 mmHg
half-life [7]: 38 min
Reaction [11]: 50%
Change [5]: -30%
Pressure [17]: -6.5 mmHg
Change [4]: -47%
Pressure [6]: -8.2 mmHg
Change [10]: -16%

NS(=O)(=O)c1nc2ccc(OC(=O)C3CCCCC3)cc2s1
IC50 [2]: 6 nM
half-life [7]: 2 min
Reaction [11]: 50%
K [8]: 0.0712 h⁻¹
K [9]: 0.0175 h⁻¹
Pressure [17]: -4.6 mmHg
Change [4]: -34%
Pressure [6]: -9.8 mmHg

CC(=O)Nc1nnc(S(N)(=O)=O)s1 [ACETAZOLAMIDE]
Reaction [11]: 3%

CCOc1ccc2nc(S(N)(=O)=O)sc2c1 [ETHOXZOLAMIDE]
Reaction [11]: 36%

CN(C)c1ccc(C(=O)Oc2ccc3nc(S(N)(=O)=O)sc3c2)cc1
Change [4]: 7%
IC50 [1]: 60 nM

CCCC(=O)Oc1ccc2nc(S(N)(=O)=O)sc2c1
IC50 [2]: 3.2 nM
Change [3]: -46%
half-life [7]: 6 min
K [8]: 0.054 h⁻¹
K [9]: 0.0202 h⁻¹
Change [5]: -30%
Pressure [17]: -5.5 mmHg
Change [4]: -50%
Pressure [6]: -6.8 mmHg
Change [10]: -25%

CC(C)(C)OC(=O)Oc1ccc2nc(S(N)(=O)=O)sc2c1
IC50 [2]: 10 nM

COCCOC(C)(C)C(=O)Oc1ccc2nc(S(N)(=O)=O)sc2c1
IC50 [2]: 1.4 nM
half-life [7]: 72 min
K [8]: 0.0097 h⁻¹
K [9]: 0.015 h⁻¹

CN(C)OS(=O)(=O)c1ccc2nc(S(N)(=O)=O)sc2c1
IC50 [2]: 1.2 nM

COc1cccc(OC)c1C(=O)Oc1ccc2nc(S(N)(=O)=O)sc2c1
IC50 [2]: 4 nM

CCCCCC(=O)Oc1ccc2nc(S(N)(=O)=O)sc2c1
IC50 [2]: 4 nM
half-life [7]: 2 min
K [8]: 0.0152 h⁻¹
K [9]: 0.0182 h⁻¹

CCOC(C)(C)C(=O)Oc1ccc2nc(S(N)(=O)=O)sc2c1
IC50 [2]: 1.2 nM
half-life [7]: 64 min
K [8]: 0.0373 h⁻¹
K [9]: 0.0162 h⁻¹

Cn1cccc1C(=O)Oc1ccc2nc(S(N)(=O)=O)sc2c1
IC50 [2]: 2.9 nM
Change [4]: -12%

CC(C)(C)C(=O)Nc1c(OC(=O)C(C)(C)C)ccc2nc(S(N)(=O)=O)sc12
IC50 [2]: 32 nM
